Results taken from patent US20260293937A1, “SHRIMP FEED AND METHODS OF USE THEREOF” (Organicin Scientific, Inc., priority 2023, published 2026).
No end group written: not given here.

Assays:
[1] = system: brine shrimp (Artemia salina); assay: Brine shrimp toxicity of EDTA (Example 5); assay type: in vivo; conditions: for mortality at 20000 µM: Artemia salina, 20 mM; for mortality: concentrations less than or equal to 400 µM
Description: This Example describes the toxicity and efficacy of EDTA in reducing pathogenesis and promoting survival of shrimp. Brine shrimp (Artemia salina) were utilized as a model organism to simulate potential impacts on Pacific whiteleg shrimp (Penaeus vannamei).
Artemia salina (a species of brine shrimp) were used. Additional materials included: ethylenediaminetetraacetic acid (EDTA; 99% pure) powder (USB Corporation Instant Ocean (Instant Ocean Spectrum Brands. Blacksburg, VA); and Artemia salina eggs were used.
Artemia salina eggs were hatched in artificial seawater (Instant Ocean) under controlled conditions. Newly hatched brine shrimp were then exposed to varying concentrations of EDTA in experimental tanks. A separate set of tanks was used for each concentration of EDTA (20 mM, 400 uM, 200 uM, and 100 uM).
Control tanks treated with saline water were prepared to observe the natural behavior and survival rate of Artemia salina without EDTA exposure.
Brine shrimp were divided into different tanks for exposure to varying concentrations (20 mM, 400 uM, 200 uM, and 100 uM) of EDTA.
Mortality and behavior of brine shrimp were recorded at 24 and 48 hours post-exposure.

E. coli (ECX) = assay: Zone of inhibition, Nisin with and without EDTA (Example 6); assay type: cell-based, Escherichia coli; conditions: 4.05 mg/mL Nisin in CAB, with or without 20.8 mM EDTA
Description: (§1) ImmuCell Nisin A (96% pure) suspended in citric acid buffer (pH 3.4) at 4.05 mg/mL (ImmuCell, Portland, ME); Nisin A (Nissen®-A; 10% pure powder, Siveele, Breda, Netherlands): Citric Acid Buffer (CAB) pH=3.4; 60 mm Petri Dishes; Laboratory control strain of Staphylococcus aureus (“SAI”), experimental strains of Escherichia coli (“ECY” and “ECX”) and Vibrio parahaemolyticus (“VPY”, and “VPX”); and ethylenediaminetetraacetic acid (EDTA: 99% pure) powder (USB Corporation) were used.
(§2) On the day before the experiment, stocks of Vibrio parahaemolyticus, Staphylococcus aureus, and Escherichia coli were prepared. An inoculation loop was sterilized, cooled, and used to extract cells, which were then cultured in nutrient broth at 37° C. for 16 to 20 hours. The bacterial density was adjusted to approximately 10^7 to 10^8 CFU/mL. Subsequently, 100 μL of each culture, normalized to about 10^6 to 10^7 CFU/mL, was evenly spread on agar plates using sterile glass beads, creating a uniform bacterial lawn. Four identical lawns were prepared for each bacterial type to ensure replicative testing of treatments.
(§3) Two forms of Nisin, 96% pure Nisin (Immucell) and 10% pure Niseen (Sivele), were prepared in citric acid buffer (CAB) at a concentration of 4.05 mg/mL. To assess synergistic effects, EDTA was added to each Nisin solution to achieve a final concentration of 20.8 mM.
(§4) […] of each treatment formulation were spotted onto the prepared bacterial lawns. These plates were then incubated at 37° C. for 16 to 20 hours to allow for bacterial growth and ZOI formation.
(§5) The ZOI were observed and measured in millimeters to measure the degree of bacterial growth suppression.

E. coli (ECY) = assay: as above; assay type: cell-based, Escherichia coli; conditions: 4.05 mg/mL Nisin in CAB, with or without 20.8 mM EDTA
Description: as §1, §2, §3, §4, §5

Escherichia coli (EC-18) = assay: Zone of inhibition on agar plates (Example 4); assay type: cell-based; conditions: for concentration with no killing / concentration with reduced growth / killing down to a concentration: pre-purification
Description: (§6) ImmuCell Nisin A (96% pure) suspended in citric acid buffer (pH-3.4) at 4.86 mg/mL (ImmuCell, Portland, ME); Nisin A (Nissen®-A; 10% pure powder, Siveele, Breda, Netherlands): Nisin Z (26.7% pure) powder (Handry, Brussels, Belgium): Citric Acid Buffer (CAB) pH=3.4; Distilled H2O (dH2O); Instant Ocean (Instant Ocean Spectrum Brands, Blacksburg. VA): Artemia salina eggs: 60 mm Petri Dishes; Laboratory control strains of Staphylococcus aureus and Escherichia coli (“SA1” and “EC-18,” respectively): 15 mL Falcon Tubes; and Slide-A-Lyzer Dialysis Flask, 2K MWCO, 250 mL (Thermo Scientific, Rockford, IL) were used.
(§7) Nisin variants (Nisin A, Nisin Z, and ImmuCell Nisin A) were dissolved in either citric acid buffer (CAB, pH 3.4) for Nisin A or dH2O for Nisin Z to make a stock solution of 4.86 mg/mL. Serial dilutions were performed to achieve the different concentrations (4.86 mg/mL to 0.005 mg/mL) for the experiments.
(§8) Parallel to the toxicity tests, antibacterial efficacy was evaluated by applying Nisin solutions (before and after basic purification via Slide-A-Lyzer Dialysis) onto agar plates pre-inoculated with laboratory control strains Staphylococcus aureus (“SA1”) and Escherichia coli (“EC-18”). Zones of inhibition were measured 24 hours post-incubation at 37° C.
(§9) Mortality and behavior of the brine shrimp were recorded at 24 and 48 hours post-exposure. For the antimicrobial tests, the diameter of inhibition zones on agar plates containing the laboratory control strains were measured and recorded.

[2] = system: Staphylococcus aureus (SA1); assay: Zone of inhibition on agar plates (Example 4); assay type: cell-based; conditions: for concentration with no killing / concentration with reduced growth / killing down to a concentration: pre-purification
Description: as §6, §7, §8, §9

[3] = system: Vibrio parahaemolyticus (VPX); assay: Zone of inhibition, Nisin with and without EDTA (Example 6); assay type: cell-based; conditions: 4.05 mg/mL Nisin in CAB, with or without 20.8 mM EDTA
Description: as §1, §2, §3, §4, §5

[4] = system: Vibrio parahaemolyticus (VPY); assay: as above; assay type: cell-based; conditions: 4.05 mg/mL Nisin in CAB, with or without 20.8 mM EDTA
Description: as §1, §2, §3, §4, §5

[5] = system: Staphylococcus aureus (SA1); assay: as above; assay type: cell-based; conditions: 4.05 mg/mL Nisin in CAB, with or without 20.8 mM EDTA
Description: as §1, §2, §3, §4, §5

[6] = system: brine shrimp (Artemia salina); assay: Brine shrimp toxicity of Nisin formulations (Example 4); assay type: in vivo; conditions: for efficacy in reducing mortality in shrimp: Nisin Z (26.7% pure) compared with Nisin A (10% pure)
Description: This Example describes the efficacy of various Nisins: Nisin Z, Nisin A, and ImmuCell Nisin A. This experiment assessed the safety and antimicrobial efficacy of various Nisin formulations in treating Vibrio parahaemolyticus infections, a common pathogen in aquaculture environments. Brine shrimp (Artemia salina) were utilized as a model organism to simulate potential impacts on Pacific whiteleg shrimp (Penaeus vannamei).
as §7
Artemia salina eggs were hatched in artificial seawater (Instant Ocean) under controlled conditions. Newly hatched brine shrimp were then exposed to varying concentrations of each Nisin solution in experimental tanks. A separate set of tanks was used for each type of Nisin formulation.
Control tanks (treated with either CAB or saline water) were prepared to observe the natural behavior and survival rate of Artemia salina without Nisin exposure.
Brine shrimp were divided into different tanks for exposure to varying concentrations (2.43 mg/mL, 0.608 mg/mL, 0.152 mg/mL, and 0.038 mg/mL) of Nisin A, Nisin Z, and ImmuCell Nisin A.
as §9

Suspension in dH2O = assay type: physicochemical
Description: as §7

[7] = Retention by 2 kDa dialysis membrane; assay type: physicochemical; conditions: water sampled at 4 and 24 hours
Description: as §8
Next, the zones of inhibition for Nisin Z pre- and 48 hours post-2 kDa dialysis membrane purification were spotted onto a lawn of a control strain (SA1). […] Water samples were taken to test if any drug was lost at the 4 hour mark and again at the 24 hour mark. […] To remove additional contaminants, additional filtration is performed to purify Nisin Z.

Vibrio parahaemolyticus = assay: Brine shrimp efficacy challenge trial with and without Nisin (Example 7); assay type: in vivo, Artemia salina; conditions: vs control group exposed to Vibrio parahaemolyticus without Nisin Z; example in present tense
Description: Brine shrimp (Artemia salina) are used and are prepared according to methods detailed in Examples 1-6. Additional materials, methods and experimental design may be similar to that described in Examples 1-6. A virulent strain of Vibrio parahaemolyticus is cultured to a concentration of about […], which is used for the challenge. Shrimp groups are divided: one group receives no treatment (as control) and the other group set receives brine infused with Nisin Z (concentration as determined optimal in prior experiments).

[8] = highly acidic conditions, high temperatures, proteases; cited from earlier work
brine shrimp = assay: Pre- and post-dialysis toxicity assay and Nisin/EDTA toxicity assay (Example 9); assay type: in vivo, Artemia salina; conditions: after 48-hour dialysis; example in present tense
Description: Utilizing materials, methods and experimental designs as described in Examples 1-6, Nisin Z is subjected to a 48-hour dialysis treatment to reduce impurities. The toxicity assay involves exposing brine shrimp to treated and untreated samples of Nisin Z, both alone and in combination with EDTA at a concentration of […].

[9] = all dilutions 4.86 mg/mL-0.005 mg/mL
[10] = unpurified, in dH2O, 0.608 mg/mL

Row | Molecule | Diameter (zone of inhibition) (E. coli (ECX)) [mm] | Diameter (zone of inhibition) (E. coli (ECY)) [mm] | Diameter (zone of inhibition) [3] [mm] | Diameter (zone of inhibition) [4] [mm] | Diameter (zone of inhibition) [5] [mm] | efficacy in reducing mortality in shrimp [6] | mortality [6, 10] | concentration with no killing (Escherichia coli (EC-18)) [mg/mL] | concentration with reduced growth (Escherichia coli (EC-18)) [mg/mL] | killing down to a concentration (Escherichia coli (EC-18)) [mg/mL] | concentration with no killing [2] [mg/mL] | concentration with reduced growth [2] [mg/mL] | killing down to a concentration [2] [mg/mL] | suspension with dH2O as solvent (Suspension in dH2O) | also measured
1 | O=C(O)CN(CCN(CC(=O)O)CC(=O)O)CC(=O)O [EDTA, ethylenediaminetetraacetic acid] |  |  |  |  |  |  |  |  |  |  |  |  |  |  | mortality at 20000 µM ([1]; 24 hours post-exposure): 100%; mortality at 20000 µM ([1]; 48 hours post-exposure): 100%; mortality ([1]; 24 hours post-exposure): zero mortality; mortality ([1]; 48 hours post-exposure): zero mortality
2 | ImmuCell Nisin A: ImmuCell Nisin A (96% pure) suspended in citric acid buffer (ImmuCell, Portland, ME) (ITSISLCTPGCKTGALMGCNMKTATCHCSIHVSK; cysteine pairing not given here; also: lantibiotic, modifications not placed; UniProt P13068 24-57, looked up) | 10 | 6 | 4 | 4 | 13 |  |  |  |  |  |  |  |  |  | zones of inhibition (Escherichia coli (EC-18); [9]): clear zones of inhibition; zones of inhibition [2, 9]: clear zones of inhibition
3 | Nisin A: Nisin A (Nissen®-A; 10% pure powder, Siveele, Breda, Netherlands) (ITSISLCTPGCKTGALMGCNMKTATCHCSIHVSK; cysteine pairing not given here; also: lantibiotic, modifications not placed; UniProt P13068 24-57, looked up) | 8 | 4 | 4 | 0 | 13 | comparable efficacy | drastic increase in mortality | 0.005 | 0.009 | 0.019 | 0.005 | 0.009 | 0.019 | did not go fully into suspension | mortality ([6]; unpurified, in dH2O, 0.152 mg/mL): showed mortality
4 | Nisin Z: Nisin Z (26.7% pure) powder (Handry, Brussels, Belgium) (ITSISLCTPGCKTGALMGCNMKTATCNCSIHVSK; not fully specified (residues 2, 5, 33, bridges); cysteine pairing not given here; UniProt P29559 24-57, looked up) |  |  |  |  |  | comparable efficacy | drastic increase in mortality | 0.005 | 0.009 | 0.019 | 0.005 | 0.009 | 0.019 | went into suspension fully | loss of Nisin into the dH2O [7]: no loss of Nisin; toxicity ([6]; unpurified, in dH2O, 0.152 mg/mL to 0.038 mg/mL, 48 hours): no toxicity; mortality rates (Vibrio parahaemolyticus): significantly lower mortality rates; zones of inhibition pre- and 48 hours post-dialysis ([2]; 2 kDa dialysis membrane purification): same sized zones
5 | aureocin A53 |  |  |  |  |  |  |  |  |  |  |  |  |  |  | stability [8]: stable under highly acidic conditions, high temperatures, and is not affected by proteases
6 | post-dialyzed Nisin Z: Nisin Z subjected to a 48-hour dialysis treatment to reduce impurities (ITSISLCTPGCKTGALMGCNMKTATCNCSIHVSK; cysteine pairing not given here; also: lantibiotic nisin-Z, modifications not given here; UniProt P29559 24-57, looked up) |  |  |  |  |  |  |  |  |  |  |  |  |  |  | toxicity (brine shrimp): reduced toxicity
